# ChEMBL document CHEMBL1201862, “PubChem BioAssay data set” (2004)
#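 Five concentrations, 48 hours, 96-well plates. Abbreviation: GI50, concentration required for 50% inhibition of growth.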 Activity calls are given as the source filed them. Rule as the data show it: active = GI50 up to about 1.1 µM and inactive = higher.
# Key:
# Experiment in all cases: NCI-60 cell line screen, 48 h
# CCRF-CEM = test system: CCRF-CEM
# IGROV-1 = test system: IGROV-1
# RXF 393 = test system: RXF 393
# OVCAR-8 = test system: OVCAR-8
# SK-OV-3 = test system: SK-OV-3
# SF-295 = test system: SF-295
# U-251 = test system: U-251
# 786-0 = test system: 786-0
# SR = test system: SR
# A549 = test system: A549
# SK-MEL-2 = test system: SK-MEL-2
# TK-10 = test system: TK-10
# NCI-H522 = test system: NCI-H522
# SNB-19 = test system: SNB-19
# PC-3 = test system: PC-3
# MDA-MB-231 = test system: MDA-MB-231
# LOX IMVI = test system: LOX IMVI
# UACC-257 = test system: UACC-257
# DU-145 = test system: DU-145
# OVCAR-3 = test system: OVCAR-3
# HL-60 = test system: HL-60
# SK-MEL-28 = test system: SK-MEL-28
# SF-539 = test system: SF-539
# M14 = test system: M14
# OVCAR-5 = test system: OVCAR-5
# SNB-75 = test system: SNB-75
# UACC-62 = test system: UACC-62
# SF-268 = test system: SF-268
# SK-MEL-5 = test system: SK-MEL-5
# HOP-92 = test system: HOP-92
# Hs-578T = test system: Hs-578T
# HCC 2998 = test system: HCC 2998
# A498 = test system: A498
# MCF7 = test system: MCF7
# SW-620 = test system: SW-620
# KM12 = test system: KM12
# EKVX = test system: EKVX
# NCI-H226 = test system: NCI-H226
# HOP-62 = test system: HOP-62
# Malme-3M = test system: Malme-3M
# MDA-MB-435 = test system: MDA-MB-435
# UO-31 = test system: UO-31
# CAKI-1 = test system: CAKI-1
# T47D = test system: T47D
# COLO 205 = test system: COLO 205
# NCI/ADR-RES = test system: NCI/ADR-RES
# NCI-H460 = test system: NCI-H460
# OVCAR-4 = test system: OVCAR-4
# K562 = test system: K562
# HT-29 = test system: HT-29
# HCT-15 = test system: HCT-15
# RPMI-8226 = test system: RPMI-8226
# MDA-N = test system: MDA-N
# NCI-H23 = test system: NCI-H23
# ACHN = test system: ACHN
# SN12C = test system: SN12C
# BT-549 = test system: BT-549
# HCT-116 = test system: HCT-116
# MOLT-4 = test system: MOLT-4
smiles,measurement,setting,value
CC1CC[C@@]2(OC1)OC1C[C@H]3[C@@H]4CC=C5C[C@@H](OC6OC(CO)C(OC7OC(CO)C(O)C(O)C7O)C(O)C6OC6OC(C)C(O)C(O)C6O)CC[C@]5(C)[C@H]4CC[C@]3(C)C1[C@@H]2C (stereo not given in full),GI50,CCRF-CEM,0.617 µM (active)
same,GI50,IGROV-1,0.516 µM (active)
same,GI50,RXF 393,0.431 µM (active)
same,GI50,OVCAR-8,0.659 µM (active)
same,GI50,SK-OV-3,3.3 µM (inactive)
same,GI50,SF-295,1.94 µM (inactive)
same,GI50,U-251,0.493 µM (active)
same,GI50,786-0,0.49 µM (active)
same,GI50,SR,0.402 µM (active)
same,GI50,A549,0.746 µM (active)
same,GI50,SK-MEL-2,0.759 µM (active)
same,GI50,TK-10,1.04 µM (active)
same,GI50,NCI-H522,0.998 µM (active)
same,GI50,SNB-19,1.2 µM (inactive)
same,GI50,PC-3,0.469 µM (active)
same,GI50,MDA-MB-231,0.435 µM (active)
same,GI50,LOX IMVI,0.462 µM (active)
same,GI50,UACC-257,0.526 µM (active)
same,GI50,DU-145,0.476 µM (active)
same,GI50,OVCAR-3,0.643 µM (active)
same,GI50,HL-60,0.753 µM (active)
same,GI50,SK-MEL-28,0.53 µM (active)
same,GI50,SF-539,0.491 µM (active)
same,GI50,M14,0.479 µM (active)
same,GI50,OVCAR-5,1.42 µM (inactive)
same,GI50,SNB-75,2.07 µM (inactive)
same,GI50,UACC-62,0.469 µM (active)
same,GI50,SF-268,0.593 µM (active)
same,GI50,SK-MEL-5,0.543 µM (active)
same,GI50,HOP-92,0.729 µM (active)
same,GI50,Hs-578T,0.714 µM (active)
same,GI50,HCC 2998,0.484 µM (active)
same,GI50,A498,0.611 µM (active)
same,GI50,MCF7,0.587 µM (active)
same,GI50,SW-620,0.624 µM (active)
same,GI50,KM12,0.547 µM (active)
same,GI50,EKVX,0.544 µM (active)
same,GI50,NCI-H226,0.873 µM (active)
same,GI50,HOP-62,0.593 µM (active)
same,GI50,Malme-3M,0.634 µM (active)
same,GI50,MDA-MB-435,0.558 µM (active)
same,GI50,UO-31,0.48 µM (active)
same,GI50,CAKI-1,0.76 µM (active)
same,GI50,T47D,0.513 µM (active)
same,GI50,COLO 205,0.526 µM (active)
same,GI50,NCI/ADR-RES,2.07 µM (inactive)
same,GI50,NCI-H460,0.685 µM (active)
same,GI50,OVCAR-4,1.53 µM (inactive)
same,GI50,K562,0.466 µM (active)
same,GI50,HT-29,0.475 µM (active)
same,GI50,HCT-15,3.52 µM
same,GI50,RPMI-8226,0.526 µM (active)
same,GI50,MDA-N,0.863 µM (active)
same,GI50,NCI-H23,0.783 µM (active)
same,GI50,ACHN,1.24 µM (inactive)
same,GI50,SN12C,0.635 µM (active)
same,GI50,BT-549,0.463 µM (active)
same,GI50,HCT-116,0.838 µM (active)
same,GI50,MOLT-4,0.434 µM (active)
COP(=O)(OC)C1=c2c(C)noc2=C2C=COC2C1=O (stereo not given),GI50,CCRF-CEM,> 100 µM (inactive)
same,GI50,IGROV-1,> 100 µM (inactive)
same,GI50,RXF 393,> 100 µM (inactive)
same,GI50,OVCAR-8,> 100 µM (inactive)
same,GI50,SK-OV-3,> 100 µM (inactive)
same,GI50,SF-295,> 100 µM (inactive)
same,GI50,U-251,> 100 µM (inactive)
same,GI50,786-0,> 100 µM (inactive)
same,GI50,SR,> 100 µM (inactive)
same,GI50,A549,> 100 µM (inactive)
same,GI50,SK-MEL-2,> 100 µM (inactive)
same,GI50,TK-10,> 100 µM (inactive)
same,GI50,NCI-H522,> 100 µM (inactive)
same,GI50,SNB-19,> 100 µM (inactive)
same,GI50,PC-3,> 100 µM (inactive)
same,GI50,MDA-MB-231,56.1 µM (inactive)
same,GI50,LOX IMVI,> 100 µM (inactive)
same,GI50,UACC-257,> 100 µM (inactive)
same,GI50,DU-145,> 100 µM (inactive)
same,GI50,OVCAR-3,> 100 µM (inactive)
same,GI50,HL-60,> 100 µM (inactive)
same,GI50,SF-539,> 100 µM (inactive)
same,GI50,M14,> 100 µM (inactive)
same,GI50,OVCAR-5,> 100 µM (inactive)
same,GI50,SNB-75,94.6 µM (inactive)
same,GI50,UACC-62,> 100 µM (inactive)
same,GI50,SF-268,> 100 µM (inactive)
same,GI50,SK-MEL-5,> 100 µM (inactive)
same,GI50,HOP-92,63.4 µM (inactive)
same,GI50,Hs-578T,45.9 µM (inactive)
same,GI50,HCC 2998,> 100 µM (inactive)
same,GI50,A498,> 100 µM (inactive)
same,GI50,MCF7,> 100 µM (inactive)
same,GI50,SW-620,> 100 µM (inactive)
same,GI50,KM12,> 100 µM (inactive)
same,GI50,EKVX,> 100 µM (inactive)
same,GI50,NCI-H226,> 100 µM (inactive)
same,GI50,HOP-62,> 100 µM (inactive)
same,GI50,Malme-3M,> 100 µM (inactive)
same,GI50,MDA-MB-435,> 100 µM (inactive)
same,GI50,UO-31,> 100 µM (inactive)
same,GI50,CAKI-1,> 100 µM (inactive)
same,GI50,T47D,> 10 µM (inactive)
same,GI50,COLO 205,> 100 µM (inactive)
same,GI50,NCI/ADR-RES,> 100 µM (inactive)
same,GI50,OVCAR-4,> 100 µM (inactive)
same,GI50,K562,> 100 µM (inactive)
same,GI50,HT-29,> 100 µM (inactive)
same,GI50,HCT-15,> 100 µM
same,GI50,RPMI-8226,> 100 µM (inactive)
same,GI50,MDA-N,> 100 µM (inactive)
same,GI50,NCI-H23,> 100 µM (inactive)
same,GI50,ACHN,> 100 µM (inactive)
same,GI50,SN12C,> 100 µM (inactive)
same,GI50,BT-549,> 100 µM (inactive)
same,GI50,HCT-116,> 100 µM (inactive)
same,GI50,MOLT-4,> 100 µM (inactive)
C=CC(C)(C)NC(C(=O)N1CCC[C@H]1c1nc(-c2nc(C(=O)OCC=C(C)C)c(C)o2)c(C)o1)C(C)C (stereo not given in full),GI50,CCRF-CEM,> 59.7 µM (inactive)
same,GI50,IGROV-1,52.1 µM (inactive)
same,GI50,RXF 393,> 55.2 µM (inactive)
same,GI50,OVCAR-8,> 58.6 µM (inactive)
same,GI50,SK-OV-3,> 83 µM (inactive)
same,GI50,SF-295,> 50 µM (inactive)
same,GI50,U-251,> 48.2 µM (inactive)
same,GI50,786-0,> 58.1 µM (inactive)
same,GI50,SR,32.2 µM (inactive)
same,GI50,A549,> 58.9 µM (inactive)
same,GI50,SK-MEL-2,> 45.3 µM (inactive)
same,GI50,TK-10,> 57.8 µM (inactive)
same,GI50,NCI-H522,> 100 µM (inactive)
same,GI50,SNB-19,> 48.6 µM (inactive)
same,GI50,PC-3,> 64 µM (inactive)
same,GI50,MDA-MB-231,47 µM (inactive)
same,GI50,LOX IMVI,> 49.2 µM (inactive)
same,GI50,UACC-257,> 58.7 µM (inactive)
same,GI50,DU-145,> 84.7 µM (inactive)
same,GI50,OVCAR-3,46.6 µM (inactive)
same,GI50,HL-60,17.1 µM (inactive)
same,GI50,SK-MEL-28,> 66.1 µM (inactive)
same,GI50,SF-539,> 48.2 µM (inactive)
same,GI50,M14,> 62.2 µM (inactive)
same,GI50,OVCAR-5,> 76 µM (inactive)
same,GI50,SNB-75,33.3 µM (inactive)
same,GI50,UACC-62,37.8 µM (inactive)
same,GI50,SF-268,> 100 µM (inactive)
same,GI50,SK-MEL-5,47.1 µM (inactive)
same,GI50,HOP-92,23.3 µM (inactive)
same,GI50,Hs-578T,81.5 µM (inactive)
same,GI50,HCC 2998,> 100 µM (inactive)
same,GI50,A498,47.1 µM (inactive)
same,GI50,MCF7,> 53.8 µM (inactive)
same,GI50,SW-620,45.8 µM (inactive)
same,GI50,KM12,> 54.2 µM (inactive)
same,GI50,EKVX,> 52 µM (inactive)
same,GI50,NCI-H226,> 48.8 µM (inactive)
same,GI50,HOP-62,> 100 µM (inactive)
same,GI50,Malme-3M,> 100 µM (inactive)
same,GI50,MDA-MB-435,> 45.1 µM (inactive)
same,GI50,UO-31,21.8 µM (inactive)
same,GI50,CAKI-1,> 55.2 µM (inactive)
same,GI50,T47D,74.8 µM (inactive)
same,GI50,COLO 205,34 µM (inactive)
same,GI50,NCI/ADR-RES,> 55 µM (inactive)
same,GI50,NCI-H460,31.9 µM (inactive)
same,GI50,OVCAR-4,33.3 µM (inactive)
same,GI50,K562,> 60.7 µM (inactive)
same,GI50,HT-29,> 52 µM (inactive)
same,GI50,HCT-15,> 52.1 µM
same,GI50,RPMI-8226,> 100 µM (inactive)
same,GI50,MDA-N,23.9 µM (inactive)
same,GI50,NCI-H23,> 100 µM (inactive)
same,GI50,ACHN,> 45.9 µM (inactive)
same,GI50,SN12C,> 47.8 µM (inactive)
same,GI50,BT-549,> 100 µM (inactive)
same,GI50,HCT-116,> 60.7 µM (inactive)
same,GI50,MOLT-4,47.5 µM (inactive)
